# Measured values published in PubChem BioAssay AID977627 (Broad Institute, 2014).
# Inconclusive results are not listed.
# System: E. coli H38 humanized ribosome GFP strain, fluorescence, 24 h
# Assay: E. coli strain growth, wild-type against H38 humanized mutant – H38 mutant GFP vs wild-type RFP, cherry-pick, dose response (AID 977627)
# Conditions: measured here: total growth OD600
row,SMILES,AC50 [µM]
1,COC(=O)c1c(NC(=O)CCC(=O)O)sc(Cc2ccccc2)c1C,> 100
2,CC1(Cc2ccccc2C#N)C(=O)Nc2cc(-c3ccccc3Cl)ccc21 (configuration not stated),41.9
